According to patent US20210308089A1, “METHODS OF TREATING AND/OR PREVENTING VIRAL INFECTIONS AND/OR DISEASES CAUSED BY VIRUSES IN A SUBJECT IN NEED THEREOF” (priority 2020, published 2021):

Tested on: patients of the REDUCE-IT and earlier EPA placebo-controlled trials
Test: Example 3: adverse events by risk ratio, icosapent ethyl vs placebo (candidate categories; infectious disease terms of interest)
Settings: R-I

CC/C=C\C/C=C\C/C=C\C/C=C\C/C=C\CCCC(=O)OCC [icosapent ethyl, eicosapentaenoic acid ethyl ester]
AR: Bipolar Disease (AE table): 0.0% | AR: Blood CPK increased (AE table): 1.6% | AR: Blood glucose increased (AE table): 0.2% | AR: Bone Fractures (AE table): 0.0% | AR: Bronchiectasis (AE table): 0.1% | AR: Bronchitis chronic (AE table): 0.2% | AR: CKD (AE table): 1.3% | AR: COPD (AE table): 2.7% | AR: Carotid bruit (AE table): 0.4% | AR: Cholestasis (AE table): 0.0% | AR: Chrohn's Disease (AE table): 0.0% | AR: Cognitive Decline: Attention disorders and disturbances (AE table): 0.0% | AR: Cognitive Decline: Cognitive and attention disorders and disturbances (AE table): 0.0% | AR: Cough (AE table): 5.9% | AR: Decreased Appetite (AE table): 0.5% | AR: Deep Venous Thromboembolism (AE table): 0.2% | AR: Depression: Depressed mood disorders and disturbances (AE table): 2.9% | AR: Depression: Depressive disorders (AE table): 2.8% | AR: Depression: Depressive disorders - Agitated depression (AE table): 0.0% | AR: Depression: Depressive disorders - Depression (AE table): 2.6% | AR: Depression: Depressive disorders - Major depression (AE table): 0.0% | AR: Depression: Depressive disorders - Persistent depressive disorder (AE table): 0.0% | AR: Depression: Mood alterations - Depressed mood (AE table): 0.1% | AR: Depression: Mood alterations - Depressive symptom (AE table): 0.0% | AR: Depression: Mood alterations with depressive symptoms (AE table): 0.2% | AR: Dermatitis psoriasiform (AE table): 0.0% | AR: Dermatitis, allergic (AE table): 0.2% | AR: Diabetic Nephropathy (AE table): 0.3% | AR: ESRD (AE table): 0.1% | AR: Ear infection (AE table): 0.9% | AR: Embolism and Thrombosis (AE table): 1.2% | AR: Emphysema (AE table): 0.4% | AR: Epilepsy (AE table): 0.0% | AR: Erectile dysfunction (AE table): 1.8% | AR: Furuncle (AE table): 0.2% | AR: Gastroenteritis, viral (AE table): 1.1% | AR: Gastroesophageal reflux (AE table): 0.1% | AR: Gingivitis (AE table): 0.2% | AR: Glomerulonephritis and Nephrotic Syndrome (AE table): 0.0% | AR: Guttate psoriasis (AE table): 0.0% | AR: Helicobacter infection (AE table): 0.2% | AR: Hepatitis C (AE table): 0.0% | AR: Herpes Zoster (AE table): 1.8% | AR: Herpes simplex (AE table): 0.2% | AR: Hyperglycemia (AE table): 2.0% | AR: Hyperkalemia (AE table): 1.1% | AR: Hypertension (AE table): 8.1% | AR: Hypertensive Crisis (AE Table): 0.9% | AR: Hypokalemia (AE table): 2.0% | AR: Hypomagnesemia (AE table): 0.9% | AR: Infected bite (AE table): 0.1% | AR: Influenza (AE table): 6.5% | AR: Influenza like illness (AE table): 0.6% | AR: Jaundice cholestatic (AE table): 0.0% | AR: Large intestine polyps (AE table): 0.2% | AR: Limb Fractures and Dislocations (AE table): 0.8% | AR: Lupus (AE table): 0.0% | AR: Microalbuminuria (AE table): 0.2% | AR: Migraine (AE table): 0.2% | AR: Mucosal inflammation (AE table): 0.1% | AR: Multiple Sclerosis (AE table): 0.0% | AR: Muscle spasms (AE table): 2.0% | AR: NASH (AE table): 0.1% | AR: NASH for b/l NFS >0.675 (AE table): 0.3% | AR: NASH+Hepatic Steatosis for NFS >0.675 (AE table): 1,6% | AR: Nasopharyngitis, Mild Severity (AE table): 7.7% | AR: Nephrolithiasis (AE table): 2.0% | AR: Nephropathies (AE table): 0.6% | AR: Nephrotic Syndrome (AE table): 0.0% | AR: Orthopnea (AE table): 0.1% | AR: PTSD (AE table): 0.1% | AR: Pancytopenia (AE table): 0.2% | AR: Pneumonia (AE table): 6.6% | AR: Proteinuria (AE table): 0.5% | AR: Psoriasis (AE table): 0.5% | AR: Psoriatic Conditions (AE table): 0.6% | AR: Psychosis: Psychotic disorder NEC (AE table): 0.0% | AR: Pulmonary Edema (AE table): 0.3% | AR: Respiratory Failure (AE table): 0.5% | AR: Respiratory tract infection (AE table): 1,2% | AR: Rheumatoid Arthritis (AE table): 0.0% | AR: Rhinitis (AE table): 0.5% | AR: Schizophrenia NEC (AE table): 0.0% | AR: Sepsis (AE table): 0.9% | AR: Severe chronic obstructive pulmonary disease (AE table): 0.5% | AR: Severe dermatitis, allergic (AE table): 0.1% | AR: Severe gastroenteritis (AE table): 0.2% | AR: Severe sepsis (AE table): 0.6% | AR: Severe systemic inflammatory response syndrome (AE table): 0.1% | AR: Severe urinary tract infection (AE table): 0.4% | AR: Systemic inflammatory response syndrome (AE table): 0.1% | AR: Tooth infection (AE table): 0.6% | AR: Ulcerative Colitis (AE table): 0.0% | AR: Upper respiratory tract infection (AE table): 7.7% | AR: Vascular hypertensive disorder (AE table): 9.0% | AR: Viral infection (AE table): 0.5% | AR: Vulvovaginal mycotic infection (AE table): 0.2% | AR: Wheezing (AE table): 0.7% | ARR: ADHD (AE table): 0.0% | ARR: Allergic sinusitis (AE table): −0.0% | ARR: Alzheimer's Disease (AE table): 0.0% | ARR: Asthma (AE table): 0.1% | ARR: Atelectasis (AE table): −0.3% | ARR: Bipolar Disease (AE table): −0.0% | ARR: Blood CPK increased (AE table): −0.6% | ARR: Blood glucose increased (AE table): −0.1%
